# Like-named read-outs stand apart in the source and are kept apart here.
# Experiments:
# [1] = system: Leishmania major; set-up: species or system balb/c mice; conditions: mouse, in vivo
# [2] = system: S. aureus; assay type: cell-based, Staphylococcus aureus
# [3] = system: S. epidermidis; assay type: cell-based, Staphylococcus epidermidis
# [4] = system: N. gonorrhoea; assay type: cell-based, Neisseria gonorrhoea
# [5] = system: Salmonella; assay type: cell-based, Salmonella spp.
# [6] = system: Shigella; assay type: cell-based, Shigella spp.
# [7] = system: EPEC/ETEC; assay type: cell-based, enteropathogenic/enterotoxigenic Escherichia coli
# [8] = system: Pseudomonas; assay type: cell-based, Pseudomonas spp.
# [9] = system: Kiebisella; assay type: cell-based, Klebsiella spp.
# [10] = system: E. coli; assay type: cell-based
# [11] = system: Archromobacter; assay type: cell-based, Achromobacter
# [12] = system: C. albicans; assay type: cell-based, Candida albicans
# [13] = system: Tri. violaceum; assay type: cell-based, Trichophyton violaceum
# [14] = system: Tri. canis; assay type: cell-based, Trichophyton canis
# [15] = system: Cryptococcus; assay type: cell-based, Cryptoccus spp.
# [16] = system: Ph. verrucose; assay type: cell-based, Phialophora verrucose
# [17] = system: Penicillium; assay type: cell-based, Penicillium spp.
# [18] = system: S. aureus; assay type: cell-based, Staphylococcus aureus; remark: listed apart in the source
# [19] = system: EPEC/ETEC; assay type: cell-based, enteropathogenic/enterotoxigenic Escherichia coli; remark: listed apart in the source
# [20] = system: Salmonella; assay type: cell-based, Salmonella spp.; remark: listed apart in the source
# [21] = system: Shigella; assay type: cell-based, Shigella spp.; remark: listed apart in the source
# [22] = system: Pseudomonas; assay type: cell-based, Pseudomonas spp.; remark: listed apart in the source
# [23] = system: Candida; assay type: cell-based, Candida spp.
# [24] = system: S. aureus; assay type: cell-based, Staphylococcus aureus; remark: listed apart in the source
# [25] = system: EPEC/ETEC; assay type: cell-based, enteropathogenic/enterotoxigenic Escherichia coli; remark: listed apart in the source
# [26] = system: Salmonella; assay type: cell-based, Salmonella spp.; remark: listed apart in the source
# [27] = system: Shigella; assay type: cell-based, Shigella spp.; remark: listed apart in the source
# [28] = system: Pseudomonas; assay type: cell-based, Pseudomonas spp.; remark: listed apart in the source
# [29] = system: Candida; assay type: cell-based, Candida spp.; remark: listed apart in the source
# [30] = system: S. aureus; assay type: cell-based, Staphylococcus aureus; remark: listed apart in the source
# [31] = system: Salmonella; assay type: cell-based, Salmonella spp.; remark: listed apart in the source
# [32] = system: Shigella; assay type: cell-based, Shigella spp.; remark: listed apart in the source
# [33] = system: EPEC/ETEC; assay type: cell-based, enteropathogenic/enterotoxigenic Escherichia coli; remark: listed apart in the source
# [34] = system: Pseudomonas; assay type: cell-based, Pseudomonas spp.; remark: listed apart in the source
# [35] = system: Candida; assay type: cell-based, Candida spp.; remark: listed apart in the source
# [36] = system: Myeloma cell line (×63 balb/c line); assay type: cell-based, balb/c (mouse)
# [37] = system: human spermatozoa; assay type: cell-based
# [38] = system: commonly encountered microorganisms; assay type: cell-based, bacteria and fungi
# [39] = system: lymphocytes; set-up: species or system Balb/c mice; conditions: mouse, in vivo
# [40] = system: Leishmania donova; set-up: species or system Balb/c mice; conditions: mouse, in vivo
# [41] = rabbit, in vivo
# Description: Six healthy New Zealand White rabbits were selected for study. The rabbits' eyes were judged free of irritation prior to the study by examining with a pen light and under UV light after installation of 2% fluorescein stain. A 1% solution of the trioxolane or diperoxide derivative of linalool was prepared in isopropyl myristate. A 0.1 ml portion of this test solution was instilled into the lower conjunctival sac of one eye of each rabbit. The lids were held closed for one second. The opposite eye of each rabbit received 0.1 ml of the isopropyl myristate, as control. […] At 24, 48, and 72 hours post dosing, the eyes were examined with a pen light and re-examined with UV light following fluorescein staining of the cornea.
compound,measurement,setting,value
"O.O.O.O.O.O.O.O.O.O=C([O-])[C@@H]1[O][Sb](=[O])([O][Sb]2(=[O])[O][C@H]([C@H](O)CO)[C@H](O)[C@H](C(=O)[O-])[O]2)[O][C@H]([C@H](O)CO)[C@@H]1O.[Na+].[Na+].[Na+] (some centres unmarked) [Pentostam, reference compound]","Dead, Day 14",[1]; ip,1 dead
same,"Lesions, Day 0",[1]; ip,Large lesions
same,"Lesions, Day 14",[1]; ip,Large lesions breaking
CCC1OOC(CCO)O1 (stereo not drawn) [Trioxolane derivative of cis 3-hexene-1-ol],MIC,[2],250 µg/mL
same,lowest concentration inhibiting at least one isolate,[2],0.031 mg/mL
same,MIC,[3],25 µg/mL
same,lowest concentration inhibiting at least one isolate,[3],0.031 mg/mL
same,MIC,[4],3.5 µg/mL
same,lowest concentration inhibiting at least one isolate,[4],0.0019 mg/mL
same,MIC,[5],7 µg/mL
same,MIC,[6],250 µg/mL
same,MIC,[7],250 µg/mL
same,MIC,[8],7 µg/mL
same,MIC,[9],7 µg/mL
same,MIC,[10],120 µg/mL
same,MIC,[11],60 µg/mL
same,MIC,[12],31 µg/mL
same,MIC,[13],150 µg/mL
same,MIC,[14],150 µg/mL
same,MIC,[15],15 µg/mL
same,MIC,[16],150 µg/mL
same,MIC,[17],310 µg/mL
same,MIC agar,[18],120 µg/mL
same,MIC agar,[19],31 µg/mL
same,MIC agar,[20],7 µg/mL
same,MIC agar,[21],7 µg/mL
same,MIC agar,[22],7 µg/mL
same,MIC agar,[23],31 µg/mL
same,MIC broth,[24],620 µg/mL
same,MIC broth,[25],620 µg/mL
same,MIC broth,[26],150 µg/mL
same,MIC broth,[27],620 µg/mL
same,MIC broth,[28],620 µg/mL
same,MIC broth,[29],310 µg/mL
same,MBC,[30],1250 µg/mL
same,MBC,[31],2500 µg/mL
same,MBC,[32],1250 µg/mL
same,MBC,[33],1250 µg/mL
same,MBC,[34],1250 µg/mL
same,MBC,[35],1250 µg/mL
same,Time to kill myeloma cell line,[36],≤ 48 h
same,Time to kill human spermatozoa,[37],≤ 1 min
same,Activity compared with Geraniol trioxolane,[38],more active than Geraniol trioxolane
same,Activity compared with conventional drugs,[38],more active than conventional drugs
same,Effect of water on direct bioactivity,[38],significantly reduces the direct bioactivity
same,New clones of lymphocytes in bone marrow,[39],increase in new clones of lymphocytes
same,"Death, Day 14",[1],No death
same,"General health, Day 14",[1],Animals healthy and active
same,"Lesions, Day 0",[1],Large lesions
same,"Lesions, Day 14",[1],Lesions small and dry
same,"Dead, Day 14",[1]; ip,2 dead
same,"Lesions, Day 0",[1]; ip,Large lesions
same,"Lesions, Day 14",[1]; ip,Lesions scabbed
same,"Palate involvement, Day 14",[1]; ip,2
same,Clearing parasites from the viscera,[40],perform better than Pentostam
linalool trioxolane,Ocular irritation,[41],non-irritant to ocular tissues of the rabbit
